Measured values as given in ChEMBL document CHEMBL1201862, “PubChem BioAssay data set” (2004).
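Briefly, cells in 96-well plates were exposed to five compound concentrations for 48 h, and endpoints were estimated by linear interpolation. Abbreviation: GI50, concentration required for 50% inhibition of growth.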 Activity calls are given as the source filed them. No stated cut-off is given here; in the data, active = GI50 up to about 1.1 µM and inactive = higher.

Assays:
Experiment in all cases: NCI-60 cell line screen, 48 h
MCF7 = test system: MCF7
LOX IMVI = test system: LOX IMVI
MOLT-4 = test system: MOLT-4
MDA-N = test system: MDA-N
BT-549 = test system: BT-549
TK-10 = test system: TK-10
OVCAR-3 = test system: OVCAR-3
SNB-19 = test system: SNB-19
HL-60 = test system: HL-60
Hs-578T = test system: Hs-578T
M14 = test system: M14
HOP-62 = test system: HOP-62
CCRF-CEM = test system: CCRF-CEM
T47D = test system: T47D
SF-539 = test system: SF-539
RPMI-8226 = test system: RPMI-8226
UO-31 = test system: UO-31
NCI-H460 = test system: NCI-H460
NCI-H522 = test system: NCI-H522
SR = test system: SR

With `N#Cc1c(N)nc2c(C#N)c(N)cc3c2c1Oc1ccccc1-3` the GI50 (MCF7) was > 100 µM (inactive), the GI50 (LOX IMVI) was > 100 µM (inactive) and the GI50 (MOLT-4) was > 100 µM (inactive). For the same compound, the GI50 (MDA-N) was > 100 µM (inactive), the GI50 (BT-549) was > 100 µM (inactive) and the GI50 (TK-10) was > 100 µM (inactive). For the same compound, the GI50 (OVCAR-3) was > 100 µM (inactive), the GI50 (SNB-19) was > 100 µM (inactive) and the GI50 (HL-60) was > 100 µM (inactive). For the same compound, the GI50 (Hs-578T) was > 100 µM (inactive), the GI50 (M14) was > 100 µM (inactive) and the GI50 (HOP-62) was > 100 µM (inactive). For the same compound, the GI50 (CCRF-CEM) was > 100 µM (inactive), the GI50 (T47D) was > 100 µM (inactive) and the GI50 (SF-539) was > 100 µM (inactive). For the same compound, the GI50 (RPMI-8226) was > 100 µM (inactive), the GI50 (UO-31) was > 100 µM (inactive) and the GI50 (NCI-H460) was > 100 µM (inactive).
For `O=P1(C(O)/C=C/c2ccccc2)N(Cc2ccccc2)[C@@H]2CCCC[C@H]2N1Cc1ccccc1` (stereo partly specified), the GI50 (MCF7) was 3.24 µM (inactive), the GI50 (LOX IMVI) was 3.8 µM (inactive) and the GI50 (MOLT-4) was 2.93 µM (inactive). The GI50 (MDA-N) was 4.62 µM (inactive), the GI50 (BT-549) was 15 µM (inactive) and the GI50 (TK-10) was 7.23 µM (inactive). For the same compound, the GI50 (OVCAR-3) was 6.64 µM (inactive), the GI50 (SNB-19) was 6.22 µM (inactive) and the GI50 (HL-60) was 2.71 µM (inactive). The GI50 (Hs-578T) was 3.65 µM (inactive), the GI50 (M14) was 4.39 µM (inactive) and the GI50 (HOP-62) was 11.1 µM (inactive). The GI50 (CCRF-CEM) was 5.19 µM (inactive), the GI50 (T47D) was 4.76 µM (inactive) and the GI50 (RPMI-8226) was 2.14 µM (inactive). For the same compound, the GI50 (UO-31) was 4.55 µM (inactive), the GI50 (NCI-H460) was 3.55 µM (inactive) and the GI50 (NCI-H522) was 2.42 µM (inactive).
`CC(C)(Br)C(Br)CCC1(C2CO2)CO1` (stereo unspecified) was tested, and the GI50 (MCF7) was > 5 µM (inactive), the GI50 (MOLT-4) was > 5 µM (inactive) and the GI50 (MDA-N) was > 5 µM (inactive). For the same compound, the GI50 (BT-549) was > 5 µM (inactive), the GI50 (OVCAR-3) was > 5 µM (inactive) and the GI50 (SNB-19) was > 5 µM (inactive). For the same compound, the GI50 (Hs-578T) was > 5 µM (inactive), the GI50 (M14) was > 5 µM (inactive) and the GI50 (HOP-62) was > 5 µM (inactive). The GI50 (CCRF-CEM) was > 5 µM (inactive), the GI50 (T47D) was > 5 µM (inactive) and the GI50 (SF-539) was > 5 µM (inactive). For the same compound, the GI50 (RPMI-8226) was > 5 µM (inactive), the GI50 (UO-31) was > 5 µM (inactive) and the GI50 (NCI-H522) was > 5 µM (inactive).
`C=C1CC(C#N)(C#N)[C@@H]2CC3CCCC3[C@H]12.C=C1CC(C#N)(C#N)[C@H]2C3CCCC3C[C@@H]12` (stereo partly specified) was tested, and the GI50 (MCF7) was 16.3 µM (inactive), the GI50 (MOLT-4) was 13.1 µM (inactive) and the GI50 (BT-549) was 25.9 µM (inactive). The GI50 (SR) was 14.6 µM (inactive), the GI50 (TK-10) was 35.1 µM (inactive) and the GI50 (OVCAR-3) was 19.3 µM (inactive). The GI50 (SNB-19) was 29.8 µM (inactive), the GI50 (HL-60) was 20.5 µM (inactive) and the GI50 (Hs-578T) was 35.9 µM (inactive). The GI50 (M14) was 15.6 µM (inactive), the GI50 (HOP-62) was 10 µM (inactive) and the GI50 (CCRF-CEM) was 10 µM (inactive). For the same compound, the GI50 (T47D) was 31.9 µM (inactive), the GI50 (SF-539) was 19.9 µM (inactive) and the GI50 (UO-31) was 20.7 µM (inactive). The GI50 (NCI-H460) was 10 µM (inactive).
For `CCCCCCCCCCCCCCCCCCNC(=S)N/C=C1/C(=O)C=C(C)OC1=O`, the GI50 (MCF7) was 29.9 µM (inactive), the GI50 (LOX IMVI) was 36.9 µM (inactive) and the GI50 (MOLT-4) was 12.7 µM (inactive). For the same compound, the GI50 (MDA-N) was 36.4 µM (inactive), the GI50 (BT-549) was 19.1 µM (inactive) and the GI50 (TK-10) was 19.2 µM (inactive). For the same compound, the GI50 (OVCAR-3) was 32.1 µM (inactive), the GI50 (SNB-19) was 20.4 µM (inactive) and the GI50 (HL-60) was 3.31 µM (inactive). The GI50 (M14) was 18 µM (inactive), the GI50 (HOP-62) was 31.8 µM (inactive) and the GI50 (T47D) was 31 µM (inactive). The GI50 (SF-539) was 24.3 µM (inactive), the GI50 (UO-31) was 16.9 µM (inactive) and the GI50 (NCI-H460) was 13.1 µM (inactive).
`O=C(OC(=C(c1ccccc1)c1ccccc1)N1CCCC1=S)C(c1ccccc1)c1ccccc1` was tested, and the GI50 (MCF7) was 7.67 µM (inactive), the GI50 (LOX IMVI) was 3.17 µM (inactive) and the GI50 (MOLT-4) was 5.01 µM (inactive). For the same compound, the GI50 (BT-549) was 5.05 µM (inactive), the GI50 (SR) was > 10 µM (inactive) and the GI50 (TK-10) was > 10 µM (inactive). The GI50 (OVCAR-3) was 7.6 µM (inactive), the GI50 (SNB-19) was > 10 µM (inactive) and the GI50 (HL-60) was > 10 µM (inactive). For the same compound, the GI50 (Hs-578T) was > 10 µM (inactive), the GI50 (M14) was > 10 µM (inactive) and the GI50 (HOP-62) was > 10 µM (inactive). For the same compound, the GI50 (CCRF-CEM) was 3.94 µM (inactive), the GI50 (T47D) was 3.58 µM (inactive) and the GI50 (SF-539) was > 10 µM (inactive). The GI50 (RPMI-8226) was 7.55 µM (inactive), the GI50 (UO-31) was > 10 µM (inactive) and the GI50 (NCI-H460) was 3.58 µM (inactive).
`CCn1c(-c2ccc(C)cc2)cs/c1=N\C(P(=O)(O)O)P(=O)(O)O` was tested, and the GI50 (MCF7) was > 100 µM (inactive), the GI50 (LOX IMVI) was > 100 µM (inactive) and the GI50 (MOLT-4) was > 100 µM (inactive). For the same compound, the GI50 (MDA-N) was > 100 µM (inactive), the GI50 (BT-549) was > 100 µM (inactive) and the GI50 (SR) was > 100 µM (inactive). The GI50 (TK-10) was > 100 µM (inactive), the GI50 (OVCAR-3) was > 100 µM (inactive) and the GI50 (SNB-19) was > 100 µM (inactive). For the same compound, the GI50 (HL-60) was 0.337 µM (active), the GI50 (Hs-578T) was > 100 µM (inactive) and the GI50 (M14) was > 100 µM (inactive). For the same compound, the GI50 (HOP-62) was > 100 µM (inactive), the GI50 (CCRF-CEM) was > 100 µM (inactive) and the GI50 (SF-539) was > 100 µM (inactive). For the same compound, the GI50 (RPMI-8226) was > 100 µM (inactive), the GI50 (UO-31) was > 100 µM (inactive) and the GI50 (NCI-H460) was > 100 µM (inactive). The GI50 (NCI-H522) was > 100 µM (inactive).
`Cc1ccc(-n2cnc3c(N)nc(N)nc32)cc1` was tested, and the GI50 (MCF7) was 66.5 µM (inactive), the GI50 (LOX IMVI) was > 100 µM (inactive) and the GI50 (MOLT-4) was 44.7 µM (inactive). For the same compound, the GI50 (MDA-N) was > 100 µM (inactive), the GI50 (BT-549) was > 100 µM (inactive) and the GI50 (TK-10) was 65.6 µM (inactive). For the same compound, the GI50 (OVCAR-3) was > 100 µM (inactive), the GI50 (SNB-19) was > 100 µM (inactive) and the GI50 (Hs-578T) was 42.7 µM (inactive). The GI50 (M14) was > 100 µM (inactive), the GI50 (HOP-62) was > 100 µM (inactive) and the GI50 (CCRF-CEM) was 43.1 µM (inactive). The GI50 (T47D) was > 100 µM (inactive), the GI50 (SF-539) was > 100 µM (inactive) and the GI50 (RPMI-8226) was > 100 µM (inactive). The GI50 (UO-31) was 58.9 µM (inactive) and the GI50 (NCI-H522) was > 100 µM (inactive).
